This experiment addresses TrpRS (Escherichia coli, UniProt P00954). Nature of the experiment: ATP-PPi exchange of gamma-18O4-ATP, MALDI-TOFMS. It counts as biochemical. The following applies: 1 mM amino acid, 1 mM gamma-18O4-ATP, 5 mM MgCl2, 5 mM PPi, 20 mM Tris pH 7.5, 30 min at 25 °C.

The structures appear in SMILES notation.

On to `N[C@@H](Cc1c[nH]c2ccccc12)C(=O)O` [Trp], for which the “%γ-^18O4-ATP exchange” value worked out at 9.7 ± 1.6%.

For the origin of these results see PMC2710614 (Chemistry & biology, 2009).
